Data on 40 molecules can be found in patent US8557839B2, “Fused ring azadecalin glucocorticoid receptor modulators” (Corcept Therapeutics, Inc., priority 2004, dated 2013).

Molecules are shown by their SMILES.

Experiment [1] addresses T1, glucocorticoid receptors (Homo sapiens, UniProt P04150).
T1 sequence (P04150 1-777): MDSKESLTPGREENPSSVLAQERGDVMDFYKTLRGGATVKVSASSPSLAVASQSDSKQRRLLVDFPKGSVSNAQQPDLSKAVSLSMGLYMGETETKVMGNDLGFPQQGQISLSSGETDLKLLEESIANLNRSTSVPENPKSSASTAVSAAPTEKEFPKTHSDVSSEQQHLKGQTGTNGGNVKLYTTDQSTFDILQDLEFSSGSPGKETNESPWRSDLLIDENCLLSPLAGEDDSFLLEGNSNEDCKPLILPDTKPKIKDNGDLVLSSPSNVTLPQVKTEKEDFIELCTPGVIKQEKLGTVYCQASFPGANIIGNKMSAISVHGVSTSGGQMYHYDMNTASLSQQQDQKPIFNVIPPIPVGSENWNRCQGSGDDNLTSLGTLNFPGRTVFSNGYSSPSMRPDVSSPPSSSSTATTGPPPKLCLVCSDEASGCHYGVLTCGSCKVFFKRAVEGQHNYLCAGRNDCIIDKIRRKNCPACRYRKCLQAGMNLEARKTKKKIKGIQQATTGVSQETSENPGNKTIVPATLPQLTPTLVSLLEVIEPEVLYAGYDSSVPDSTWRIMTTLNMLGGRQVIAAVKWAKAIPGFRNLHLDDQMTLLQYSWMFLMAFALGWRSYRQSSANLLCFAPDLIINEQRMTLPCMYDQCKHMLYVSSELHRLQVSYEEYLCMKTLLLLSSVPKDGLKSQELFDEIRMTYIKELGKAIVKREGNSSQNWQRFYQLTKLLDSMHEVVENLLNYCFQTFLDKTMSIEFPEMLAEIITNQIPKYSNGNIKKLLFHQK
As to the kind of experiment: Glucocorticoid receptor binding displacement assay with 3H-dexamethasone. Also noted: This GR was a full-length steroid hormone receptor; host or cells: recombinant baculovirus-infected insect cells. Particulars: Ki from IC50 by Cheng-Prusoff; 2.5 nM 3H-dexamethasone; read-out: GR Binding. On the procedure: The source of the receptor was recombinant baculovirus-infected insect cells. This GR was a full-length steroid hormone receptor likely to be associated with heat-shock and other endogenous proteins.
For the Primary Screen, test compounds were tested at 1 μM in duplicate. These compounds were diluted from 10 mM stock in 100% DMSO. After dilution to 100 μM, 5 μl were added to 245 μl assay buffer to obtained 2 μM compound and 2% DMSO.
For the IC50 determinations, test compounds were tested at 6 concentrations in duplicate (concentration range depends on % inhibition binding that was obtained in the Primary Screen). Test compounds were diluted from 10 mM stock in 100% DMSO. The tested solutions were prepared at 2× final assay concentration in 2% DMSO/assay buffer.
All reagents and the assay plate were kept on ice during the addition of reagents. […] After the additions, the incubation mixture was mixed and incubated for 2.5 hrs at 4° C.
After 2.5 hrs incubation, unbound counts were removed with dextran coated charcoal (DCC) as follows: 25 μl of DCC solution (10% DCC in assay buffer) was added to all wells and mixed (total volume 225 μl). The plate was centrifuged at 4000 rpm for 10 minutes at 4° C. 75 μl of the supernatants (i.e.⅓ of total volume) was carefully pipetted into an optiplate. 200 μl of scintillation cocktail were added (Microscint-40, Packard Bioscience. B.V.). The plate was vigorously shaken for approx. 10 minutes and counted on Topcount.
The IC50 values were converted to Ki (the inhibition constant) using the Cheng-Prusoff equation.
Reagents: Assay buffer: 10 mM potassium phosphate buffer pH 7.6 containing 5 mM DTT, 10 mM sodium molybdate, 100 μM EDTA and 0.1% BSA.

For experiment [2], the target named is T1, glucocorticoid receptors. As to the kind of experiment: GR functional assay using SW1353/MMTV-5 cells (dexamethasone-induced luciferase). The experiment is classed as cell-based. Also noted: contains endogenous glucocorticoid receptors; endogenous in cells; host or cells: SW1353/MMTV-5 (human chondrosarcoma, stably carrying the pMAMneo-Luc reporter). As to conditions: read-out: GR Functional. On the procedure: SW1353/MMTV-5 is an adherent human chondrosarcoma cell line that contains endogenous glucocorticoid receptors. It was transfected with a plasmid (pMAMneo-Luc) encoding firefly luciferase located behind a glucocorticoid-responsive element (GRE) derived from a viral promoter (long terminal repeat of mouse mammary tumor virus). A stable cell line SW1353/MMTV-5 was selected with geneticin, which was required to maintain this plasmid.
SW1353/MMTV-5 cells were distributed in 96-well plates and incubated in medium (without geneticin) for 24 hrs (in the absence of CO2).

Where [3] appears, read: SW1353/MMTV-5 cells, antagonism of 50 nM dexamethasone, luciferase.

For `CC(C)(C)c1ccc(S(=O)(=O)N2CCC3=Cc4c(cnn4Cc4ccccc4)CC3(Cc3ccccc3)C2)cc1` (stereo not shown) [drawing 253], the Ki in experiment [1] is less than 0.01 µM; in experiment [2] (setting [3]) it was greater than 0.1 µM.

Take `CCN(CC)C[C@]12Cc3cnn(-c4ccc(F)cc4)c3C=C1CCN(S(=O)(=O)c1ccccc1)C2`: the Ki in experiment [1] was less than 0.01 µM; in experiment [2], 0.01 to 0.1 µM.

Consider `CN(C)C(=O)[C@]12Cc3cnn(-c4ccc(F)cc4)c3C=C1CCN(S(=O)(=O)c1ccc(C(C)(C)C)cc1)C2`, for which the Ki in experiment [1] is 0.01 to 0.1 µM; in experiment [2] it was greater than 0.1 µM.

Turning to `CC(C)(C)c1ccc(S(=O)(=O)N2CCC3=Cc4c(cnn4-c4ccc(F)cc4)C[C@]3(COCCN3CCOCC3)C2)cc1`, the Ki in experiment [1] was 0.01 to 0.1 µM; in experiment [2] it was greater than 0.1 µM.

As for `COCCCOC[C@]12Cc3cnn(-c4ccc(F)cc4)c3C=C1CCN(S(=O)(=O)c1ccc(C(C)(C)C)cc1)C2`, the Ki in experiment [1] and in experiment [2] was less than 0.01 µM throughout.

With `COc1ccc(S(=O)(=O)N2CCC3=Cc4c(cnn4-c4ccc(F)cc4)C[C@]3(CN3CCCCC3)C2)cc1`, the Ki in experiment [1] and in experiment [2] was 0.01 to 0.1 µM each time.

For `O=S(=O)(c1ccc(N2CCOCC2)nc1)N1CCC2=Cc3c(cnn3-c3ccc(F)cc3)CC2(Cc2ccc(F)cc2)C1` (stereo not shown), the results for the Ki in experiment [1] and in experiment [2] were less than 0.01 µM and 0.01 to 0.1 µM, respectively.

Turning to `CC(C)(C)c1ccc(S(=O)(=O)N2CCC3=Cc4c(cnn4-c4ccc(C#N)cc4)CC3(Cc3ccccc3)C2)cc1` (stereo not shown) [drawing 255], the Ki is less than 0.01 µM in experiment [1] and 0.01 to 0.1 µM in experiment [2] (setting [3]).

As for `CCCCn1ncc2c1C=C1CCN(S(=O)(=O)c3ccc(C)cc3)C[C@@]1(COC)C2`, the Ki in experiment [1] is 0.01 to 0.1 µM; in experiment [2] it was greater than 0.1 µM.

Consider `COCCOC[C@]12Cc3cnn(-c4ccc(F)cc4)c3C=C1CCN(S(=O)(=O)c1ccccc1)C2`, for which the Ki in experiment [1] and in experiment [2] was less than 0.01 µM throughout.

`Cn1cc2c(n1)C=C1CCN(S(=O)(=O)c3ccc(C(C)(C)C)cc3)CC1(Cc1ccccc1)C2` (stereo not shown) [drawing 248]: the Ki in experiment [1] was less than 0.01 µM; in experiment [2] (setting [3]), greater than 0.1 µM.

Turning to `COCCOC[C@]12Cc3cnn(-c4ccc(F)cc4)c3C[C@@H]1CCN(S(=O)(=O)c1ccccc1)C2`, the Ki in experiment [1] was less than 0.01 µM; in experiment [2], 0.01 to 0.1 µM.

Turning to `COC[C@]12Cc3cnn(-c4ccc(F)cc4)c3C=C1CCN(S(=O)(=O)N(C)C)C2`, the Ki is 0.01 to 0.1 µM in experiment [1] and greater than 0.1 µM in experiment [2].

Take `CC(C)(C)c1ccc(S(=O)(=O)N2CCC3=Cc4c(cnn4-c4ccc(F)cc4)C[C@]3(COCCC#N)C2)cc1`: the Ki in experiment [1] and in experiment [2] was less than 0.01 µM in each case.

Turning to `CCNC(=O)[C@]12Cc3cnn(-c4ccc(F)cc4)c3C=C1CCN(S(=O)(=O)c1ccc(C(C)(C)C)cc1)C2`, the Ki was less than 0.01 µM in experiment [1] and greater than 0.1 µM in experiment [2].

On to `N#Cc1ccc(S(=O)(=O)N2CCC3=Cc4c(cnn4-c4ccc(F)cc4)C[C@]3(CN3CCOCC3)C2)cc1`, for which the Ki in experiment [1] was less than 0.01 µM; in experiment [2] it was greater than 0.1 µM.

In the case of `CN1CCOc2cc(S(=O)(=O)N3CCC4=Cc5[nH]ncc5CC4(Cc4ccccc4)C3)ccc21` (stereo not shown) [drawing 231], the Ki was less than 0.01 µM in experiment [1] and greater than 0.1 µM in experiment [2] (setting [3]).

Take `O=S(=O)(c1ccc(F)cc1)N1CCC2=Cc3c(cnn3-c3ccc(F)cc3)CC2(Cc2ccc(F)cc2)C1` (stereo not shown): the Ki was less than 0.01 µM in experiment [1] and 0.01 to 0.1 µM in experiment [2].

Take `COCCOC[C@]12Cc3cnn(C4CCCC4)c3C=C1CCN(S(=O)(=O)c1ccc(C)cc1)C2`: the Ki in experiment [1] was less than 0.01 µM; in experiment [2] it was 0.01 to 0.1 µM.

With `CC(C)n1ncc2c1C=C1CCN(S(=O)(=O)c3ccc(C(C)(C)C)cc3)C[C@@]1(CN(C)C)C2`, the Ki in experiment [1] was 0.01 to 0.1 µM; in experiment [2], greater than 0.1 µM.

Take `C=CCNC[C@]12Cc3cnn(-c4ccc(F)cc4)c3C=C1CCN(S(=O)(=O)c1ccc(C(C)(C)C)cc1)C2`: the results for the Ki in experiment [1] and in experiment [2] were less than 0.01 µM and 0.01 to 0.1 µM, respectively.

On to `Cn1cnc(S(=O)(=O)N2CCC3=Cc4c(cnn4-c4ccc(F)cc4)CC3(Cc3ccc(F)cc3)C2)c1` (stereo not shown), for which the Ki in experiment [1] was less than 0.01 µM; in experiment [2], greater than 0.1 µM.

As for `Cc1ccc(S(=O)(=O)N2CCC3=Cc4c(cnn4-c4ccc(F)cc4)CC3(Cc3ccc(F)cc3)C2)cc1` (stereo not shown), the Ki in experiment [1] is less than 0.01 µM; in experiment [2] it was 0.01 to 0.1 µM.

Turning to `CCCCn1ncc2c1C=C1CCN(S(=O)(=O)c3ccc(C(C)(C)C)cc3)C[C@@]1(C(=O)OC)C2`, the Ki in experiment [1] was 0.01 to 0.1 µM; in experiment [2], greater than 0.1 µM.

With `CC(C)(C)c1ccc(S(=O)(=O)N2CCC3=Cc4c(cnn4-c4ccc(F)cc4)C[C@]3(CCN3CCCC3)C2)cc1`, the Ki in experiment [1] and in experiment [2] was 0.01 to 0.1 µM in each case.

As to `COC(=O)[C@]12Cc3cnn(C(C)C)c3C=C1CCN(S(=O)(=O)c1ccc(C(C)(C)C)cc1)C2`, the Ki is 0.01 to 0.1 µM in experiment [1] and greater than 0.1 µM in experiment [2].

Take `COCCOC[C@]12Cc3cnn(-c4ccc(F)cc4)c3C[C@@H]1CCN(S(=O)(=O)c1ccc(C(C)(C)C)cc1)C2`: the Ki in experiment [1] and in experiment [2] was less than 0.01 µM throughout.

In the case of `CC(C)(C)c1ccc(S(=O)(=O)N2CCC3=Cc4c(cnn4-c4ccc(F)cc4)C[C@]3(CNCCO)C2)cc1`, the Ki in experiment [1] is less than 0.01 µM; in experiment [2] it was 0.01 to 0.1 µM.

On to `CC(C)(C)c1ccc(S(=O)(=O)N2CCC3=Cc4c(cnn4-c4ccc(F)cc4)C[C@]3(COCCN3CCCCC3)C2)cc1`, for which the Ki in experiment [1] was less than 0.01 µM; in experiment [2], 0.01 to 0.1 µM.

Regarding `CC(C)(C)c1ccc(S(=O)(=O)N2CCC3=Cc4c(cnn4-c4ccc(C#N)cc4)CC3(Cc3ccccc3)C2)cc1` (stereo not shown) [drawing 239], the Ki in experiment [1] is less than 0.01 µM; in experiment [2], 0.01 to 0.1 µM.

Consider `CC(C)(C)c1ccc(S(=O)(=O)N2CCC3=Cc4c(cnn4-c4ccc(F)cc4)CC3(Cc3ccccc3)C2)cc1` (stereo not shown) [drawing 233], for which the Ki in experiment [1] is less than 0.01 µM; in experiment [2], 0.01 to 0.1 µM.

For `CC(C)(C)c1ccc(S(=O)(=O)N2CCC3=Cc4c(cnn4-c4ccc(F)cc4)C[C@]3(C(O)c3ccccc3)C2)cc1` (stereo partly shown), the results for the Ki in experiment [1] and in experiment [2] were 0.01 to 0.1 µM and greater than 0.1 µM, respectively.

`CN1CCOc2cc(S(=O)(=O)N3CCC4=Cc5[nH]ncc5CC4(Cc4ccccc4)C3)ccc21` (stereo not shown) [drawing 247]: the Ki in experiment [1] was less than 0.01 µM; in experiment [2], greater than 0.1 µM.

Take `O=S(=O)(c1ccccn1)N1CCC2=Cc3c(cnn3-c3ccc(F)cc3)C[C@]2(CN2CCOCC2)C1`: the Ki in experiment [1] was less than 0.01 µM.

In the case of `O=S(=O)(c1ccccc1)N1CCC2=Cc3c(cnn3-c3ccc(F)cc3)C[C@]2(CO)C1`, the Ki in experiment [1] was 0.01 to 0.1 µM.

In the case of `CC(C)(C)c1ccc(S(=O)(=O)N2CCC3=Cc4c(cnn4-c4ccc(C(F)(F)F)cc4)CC3(Cc3ccccc3)C2)cc1` (stereo not shown) [drawing 254], the Ki in experiment [1] fell in the range of 0.01 to 0.1 µM.

Take `CC(C)(C)c1ccc(S(=O)(=O)N2CCC3=Cc4c(cnn4-c4ccc(C(F)(F)F)cc4)CC3(Cc3ccccc3)C2)cc1` (stereo not shown) [drawing 238]: the Ki in experiment [1] lay within 0.01 to 0.1 µM.

Take `CC(C)(C)c1ccc(S(=O)(=O)N2CCC3=Cc4c(cnn4-c4ccccn4)C[C@]3(C)C2)cc1`: in experiment [1], the Ki was 0.01 to 0.1 µM.

Regarding `CCCCn1ncc2c1C=C1CCN(S(=O)(=O)c3ccc(C)cc3)C[C@@]1(CN1CCCCC1)C2`, the Ki in experiment [1] was in the range of 0.01 to 0.1 µM.

Consider `CC(C)(C)c1ccc(S(=O)(=O)N2CCC3=Cc4c(cnn4Cc4cccc(O)c4)CC3(Cc3ccccc3)C2)cc1` (stereo not shown) [drawing 257], for which, in experiment [1], the Ki was greater than 0.1 µM.
